# Measured values published in patent US11345681B1, “Inhibitors of fibroblast growth factor receptor kinases” (Kinnate Biopharma Inc., priority 2020, dated 2022).
# pIC50: −log10 of the molar value.
# Molecular target: Wild type FGFR2 (Homo sapiens (Human), UniProt P21802)
# Experiment: FGFR2 kinase assay (fluorescence-based microfluidic mobility shift assay)
# Format: biochemical
# Conditions: wild type FGFR2 0.06 nM, 100 μM ATP, 80 minutes at room temperature; class symbols
# Wild type FGFR2, sequence (P21802 22-821): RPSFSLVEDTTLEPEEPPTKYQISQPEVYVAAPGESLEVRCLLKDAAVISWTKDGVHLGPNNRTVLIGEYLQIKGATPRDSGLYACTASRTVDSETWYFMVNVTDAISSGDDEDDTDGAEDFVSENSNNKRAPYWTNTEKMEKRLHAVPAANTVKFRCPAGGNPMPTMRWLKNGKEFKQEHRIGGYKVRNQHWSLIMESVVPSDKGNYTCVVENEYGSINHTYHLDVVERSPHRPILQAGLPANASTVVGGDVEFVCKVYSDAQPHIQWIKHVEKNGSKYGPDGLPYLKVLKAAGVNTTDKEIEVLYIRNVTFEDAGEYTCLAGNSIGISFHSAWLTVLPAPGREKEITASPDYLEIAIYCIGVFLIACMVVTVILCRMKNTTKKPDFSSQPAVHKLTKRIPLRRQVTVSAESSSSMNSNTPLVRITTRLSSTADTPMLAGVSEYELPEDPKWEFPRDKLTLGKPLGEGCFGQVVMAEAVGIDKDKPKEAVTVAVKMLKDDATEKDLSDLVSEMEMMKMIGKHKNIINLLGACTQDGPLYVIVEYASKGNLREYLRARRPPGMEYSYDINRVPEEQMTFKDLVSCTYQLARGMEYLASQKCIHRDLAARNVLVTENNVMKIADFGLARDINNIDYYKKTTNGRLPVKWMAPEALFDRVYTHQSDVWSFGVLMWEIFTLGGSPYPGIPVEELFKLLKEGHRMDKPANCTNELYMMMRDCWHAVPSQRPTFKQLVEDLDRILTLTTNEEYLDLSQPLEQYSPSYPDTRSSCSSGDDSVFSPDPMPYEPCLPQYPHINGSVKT
row,SMILES,pIC50
1,"C=CC(=O)N1C[C@@H](n2nc(C#Cc3cc4nc(C)n(CC)c4cc3Cl)c(C(N)=O)c2NC)C[C@@H]1COC [Example 33, 1-((3S,5R)-1-acryloyl-5-(methoxymethyl)pyrrolidin-3-yl)-3-((6-chloro-1-ethyl-2-methyl-1H-benzo[d]imidazol-5-yl)ethynyl)-5-(methylamino)-1H-pyrazole-4-carboxamide]",≥ 7.00
2,"C=CC(=O)N1C[C@@H](n2nc(C#Cc3c(F)cc4c(nc(C)n4CC(F)(F)F)c3F)c(C(N)=O)c2NC)C[C@@H]1COC [Example 35, 1-((3S,5R)-1-acryloyl-5-(methoxymethyl)pyrrolidin-3-yl)-3-((4,6-difluoro-2-methyl-1-(2,2,2-trifluoroethyl)-1H-benzo[d]imidazol-5-yl)ethynyl)-5-(methylamino)-1H-pyrazole-4-carboxamide]",≥ 7.00
3,"C=CC(=O)N1C[C@@H](n2nc(C#Cc3ccc4ncn(CC)c4c3F)c(C(N)=O)c2NC)C[C@@H]1COC [Example 36, 3-[2-(3-ethyl-4-fluoro-1,3-benzodiazol-5-yl)ethynyl]-1-[(3S,5R)-5-(methoxymethyl)-1-(prop-2-enoyl)pyrrolidin-3-yl]-5-(methylamino)pyrazole-4-carboxamide]",6.00 to 7.00
4,"C=CC(=O)N1C[C@@H](n2nc(C#Cc3cc4nc(C)n(CC)c4cc3F)c(C(N)=O)c2NC)C[C@@H]1COC [Example 37, 3-[2-(1-ethyl-6-fluoro-2-methyl-1,3-benzodiazol-5-yl)ethynyl]-1-[(3S,5R)-5-(methoxymethyl)-1-(Prop-2-enoyl)pyrrolidin-3-yl]-5-(methylamino)pyrazole-4-carboxamide]",≥ 7.00
5,"C=CC(=O)N1C[C@@H](n2nc(C#Cc3ccc4c(nc(C)n4CC)c3Cl)c(C(N)=O)c2NC)C[C@@H]1COC [Example 38, 3-[2-(4-chloro-1-ethyl-2-methyl-1,3-benzodiazol-5-yl)ethynyl]-1-[(3S,5R)-5-(methoxymethyl)-1-(prop-2-enoyl)pyrrolidin-3-yl]-5-(methylamino)pyrazole-4-carboxamide]",≥ 7.00
6,"C=CC(=O)N1C[C@@H](n2nc(C#Cc3ccc4c(n3)nc(C)n4CC)c(C(N)=O)c2NC)C[C@@H]1COC [Example 39, 3-(2-[1-ethyl-2-methylimidazo[4,5-b]pyridin-5-yl]ethynyl)-1-[(3S,5R)-5-(methoxymethyl)-1-(prop-2-enoyl)pyrrolidin-3-yl]-5-(methylamino)pyrazole-4-carboxamide]",6.00 to 7.00
7,"C=CC(=O)N1C[C@@H](n2nc(C#Cc3cc4ncn(C)c4cc3F)c(C(N)=O)c2NC)C[C@@H]1COC [Example 40, 3-[2-(6-fluoro-1-methyl-1,3-benzodiazol-5-yl)ethynyl]-1-[(3S,5)-5-(methoxymethyl)-1-(prop-2-enoyl)pyrrolidin-3-yl]-5-(methylamino)pyrazole-4-carboxamide]",≥ 7.00
8,"C=CC(=O)N1C[C@@H](n2nc(C#Cc3ccc4ncn(C)c4c3F)c(C(N)=O)c2NC)C[C@@H]1COC [Example 41, 3-[2-(4-fluoro-^-1-methyl-1,3-benzodiazol-5-yl)ethynyl]-1-[(3S,5R)-5-(methoxymethyl)-1-(prop-2-enoyl)pyrrolidin-3-yl]-(methylamino)pyrazole-4-carboxamide]",6.00 to 7.00
9,"C=CC(=O)N1C[C@@H](n2nc(C#Cc3ccc4[nH]c(C5CC5)nc4c3)c(C(N)=O)c2NC)C[C@@H]1COC [Example 42, 3-[2-(2-cyclopropyl-1H-1,3-benzodiazol-5-yl)ethynyl]-1-[(3S,5R)-5-(methoxymethyl)-1-(prop-2-enoyl)pyrrolidin-3-yl]-5-(methylamino)pyrazole-4-carboxamide]",≥ 7.00
10,"C=CC(=O)N1C[C@@H](n2nc(C#Cc3ccc4c(c3)nc(C3CC3)n4C)c(C(N)=O)c2NC)C[C@@H]1COC [Example 43, 3-[2-(2-cyclopropyl-1-methyl-1,3-benzodiazol-5-yl)ethynyl]-1-[(3S,5R)-5-(methoxymethyl)-1-(prop-2-enoyl)pyrrolidin-3-yl]-5-(methylamino)pyrazole-4-carboxamide]",≥ 7.00
11,"C=CC(=O)N1C[C@@H](n2nc(C#Cc3ccc4c(C)noc4c3)c(C(N)=O)c2NC)C[C@@H]1COC [Example 44, 1-[(3S,5R)-5-(methoxymethyl)-1-(prop-2-enoyl)pyrrolidin-3-yl]-3-[2-(3-methyl-1,2-benzoxazol-6-yl)ethynyl]-5-(methylamino)pyrazole-4-carboxamide]",≥ 7.00
12,"C=CC(=O)N1C[C@@H](n2nc(C#Cc3c(F)cc4c(nc(C5CC5)n4CC)c3F)c(C(N)=O)c2NC)C[C@@H]1COC [Example 45, 3-[2-(2-cyclopropyl-1-ethyl-4,6-difluoro-1,3-benzodiazol-5-yl)ethynyl]-1-[(3S,5R)-5-(methoxymethyl)-1-(prop-2-enoyl)pyrrolidin-3-yl]-5-(methylamino) pyrazole-4-carboxamide]",≥ 7.00
13,C=CC(=O)N1C[C@@H](n2nc(C#Cc3c(F)cc4[nH]c(C(F)(F)F)nc4c3F)c(C(N)=O)c2NC)C[C@@H]1COC [Example 46],≥ 7.00
14,"C=CC(=O)N1C[C@@H](n2nc(C#Cc3cc4nc(C)n(CC)c4cn3)c(C(N)=O)c2NC)C[C@@H]1COC [Example 48, 3-(2-[3-Ethyl-2-methylimidazo[4,5-c]pyridin-6-yl]ethynyl)-1-[(3S,5R)-5-(methoxymethyl)-1-(prop-2-enoyl)pyrrolidin-3-yl]-5-(methylamino)pyrazole-4-carboxamide]",6.00 to 7.00
15,"C=CC(=O)N1C[C@@H](n2nc(C#Cc3c(F)cc4c(nc(C5CC5)n4C)c3F)c(C(N)=O)c2NC)C[C@@H]1COC [Example 50, 3-[2-(2-Cyclopropyl-4,6-difluoro-1-methyl-1,3-benzodiazol-5-yl)ethynyl]-1-[(3S,5R)-5-(methoxymethyl)-1-(prop-2-enoyl)pyrrolidin-3-yl]-5-(methylamino)pyrazole-4-carboxamide]",≥ 7.00
16,"C=CC(=O)N1C[C@@H](n2nc(C#Cc3ccc4c(nc(C5CC5)n4C)c3F)c(C(N)=O)c2NC)C[C@@H]1COC [Example 51, 1-((3S,5R)-1-Acryloyl-5-(methoxymethyl)pyrrolidin-3-yl)-3-((2-cyclopropyl-4-fluoro-1-methyl-1H-benzo[d]imidazol-5-yl)ethynyl)-5-(methylamino)-1H-pyrazole-4-carboxamide]",≥ 7.00
17,"C=CC(=O)N1C[C@@H](n2nc(C#Cc3ccc4cccnc4c3)c(C(N)=O)c2NC)C[C@@H]1COC [Example 52, 1-[(3S,5R)-5-(Methoxymethyl)-1-(prop-2-enoyl)pyrrolidin-3-yl]-5-(methylamino)-3-[2-(quinolin-7-yl)ethynyl]pyrazole-4-carboxamide]",≥ 7.00
18,"C=CC(=O)N1C[C@@H](n2nc(C#Cc3ccn4nccc4n3)c(C(N)=O)c2NC)C[C@@H]1COC [Example 53, 1-[(3S,5R)-5-(Methoxymethyl)-1-(prop-2-enoyl)pyrrolidin-3-yl]-5-(methylamino)-3-(2-[pyrazolo[1,5-a]pyrimidin-5-yl]ethynyl)pyrazole-4-carboxamide]",6.00 to 7.00
19,"C=CC(=O)N1C[C@@H](n2nc(C#Cc3ccn4ccnc4c3)c(C(N)=O)c2NC)C[C@@H]1COC [Example 54, 1-((3S,5R)-1-Acryloyl-5-(methoxymethyl)pyrrolidin-3-yl)-3-(imidazo[1,2-a]pyridin-7-ylethynyl)-5-(methylamino)-1H-pyrazole-4-carboxamide]",≥ 7.00
20,"C=CC(=O)N1C[C@@H](n2nc(C#Cc3ccn4nccc4c3)c(C(N)=O)c2NC)C[C@@H]1COC [Example 56, 1-[(3S,5R)-5-(Methoxymethyl)-1-(prop-2-enoyl)pyrrolidin-3-yl]-5-(methylamino)-3-(2-[pyrazolo[1,5-a]pyridin-5-yl]ethynyl)pyrazole-4-carboxamide]",≥ 7.00
21,"C=CC(=O)N1C[C@@H](n2nc(C#Cc3c(F)cc4[nH]c(C5CC5)nc4c3F)c(C(N)=O)c2NC)C[C@@H]1COC [Example 61, 3-[2-(2-Cyclopropyl-4,6-difluoro-1H-1,3-benzodiazol-5-yl)ethynyl]-1-[(3S,5R)-5-(methoxymethyl)-1-(prop-2-enoyl)pyrrolidin-3-yl]-5-(methylamino)pyrazole-4-carboxamide]",≥ 7.00
22,"C=CC(=O)N1C[C@@H](n2nc(C#Cc3cc4nc(C5CC5)n(C)c4cc3F)c(C(N)=O)c2NC)C[C@@H]1COC [Example 62, 3-[2-(2-Cyclopropyl-6-fluoro-1-methyl-1,3-benzodiazol-5-yl)ethynyl]-1-[(3S,5R)-5-(methoxymethyl)-1-(prop-2-enoyl)pyrrolidin-3-yl]-5-(methylamino)pyrazole-4-carboxamide]",≥ 7.00

# Same assay, conditions: wild type FGFR2 0.06 nM, 100 μM ATP, 80 minutes at room temperature; given as numeric bound
row,SMILES,pIC50
1,"C=CC(=O)N1C[C@@H](n2nc(C#Cc3ccc4nccn4c3)c(C(N)=O)c2NC)C[C@@H]1COC [Example 55, 1-((3S,5R)-1-Acryloyl-5-(methoxymethyl)pyrrolidin-3-yl)-3-(imidazo[1,2-a]pyridin-6-ylethynyl)-5-(methylamino)-1H-pyrazole-4-carboxamide]",< 6.30
2,"C=CC(=O)N1C[C@@H](n2nc(C#Cc3cnc4nccn4c3)c(C(N)=O)c2NC)C[C@@H]1COC [Example 57, 3-(2-[Imidazo[1,2-a]pyrimidin-6-yl]ethynyl)-1-[(3S,5R)-5-(methoxymethyl)-1-(prop-2-enoyl)pyrrolidin-3-yl]-5-(methylamino)pyrazole-4-carboxamide]",< 6.30
3,"C=CC(=O)N1C[C@@H](n2nc(C#Cc3ccn4ccnc4n3)c(C(N)=O)c2NC)C[C@@H]1COC [Example 58, 3-(2-[Imidazo[1,2-a]pyrimidin-7-yl]ethynyl)-1-[(3S,5R)-5-(methoxymethyl)-1-(prop-2-enoyl)pyrrolidin-3-yl]-5-(methylamino)pyrazole-4-carboxamide]",< 6.30
4,"C=CC(=O)N1C[C@@H](n2nc(C#Cc3cc4nc(C5CC5)n(C)c4cn3)c(C(N)=O)c2NC)C[C@@H]1COC [Example 63, 3-(2-[2-Cyclopropyl-3-methylimidazo[4,5-c]pyridin-6-yl]ethynyl)-1-[(3S,5R)-5-(methoxymethyl)-1-(prop-2-enoyl)pyrrolidin-3-yl]-5-(methylamino)pyrazole-4-carboxamide]",< 6.30
